From patent US20070015813A1, “Treatment of protein folding disorders” (QUEEN'S UNIVERSITY AT KINGSTON, priority 2005, published 2007)

What was measured:
Aβ1-42 = target: T1, Aβ1-42 (Homo sapiens, UniProt P05067); experiment: Kinetic Thioflavin T (ThT) aggregation assay of Aβ1-42; format: biochemical; settings: 20 μM Aβ1-42, kinetic ThT assay
T1 construct: Aβ^1-42 (AnaSpec, lot 45685); purchased AnaSpec
Method: Aβ^1-42 (1.0 mg) was either pretreated with HFIP in the same manner as Aβ^1-40 or this step was omitted. After removing HFIP, when appropriate, Aβ^1-42 was dissolved in 1% NH3 (aq.) (200 μL) and sonicated for 1 min. The solution was diluted with Tris-HCl (5.7 mL, 20 mM, pH 7.4), the pH adjusted to 7.4 with concentrated HCl (aq.) and the solution filtered using a syringe filter (0.2 μm). Prior to use in the ThT aggregation assay, the solution was diluted with an equal volume of 8 μM Thioflavin T (ThT) in Tris-HCl (20 mM, pH 7.4, 300 mM NaCl).
(§1) Aliquots (200 μL) of Aβ^1-40, Aβ^1-42, tau441 or α-synuclein with ThT or ThS were added to wells of a black polystyrene 96-well plate, followed by 2 μL of a compound in DMSO (various concentrations), or DMSO alone (controls). For α-synuclein, sodium dodecyl sulfate solution (2.0 μL, 30 mM) was also added to each well to induce aggregation. Incubations were performed in triplicate and were taken to contain 20 μM Aβ^1-40 or Aβ^1-42, 6 μM tau441 or 4 μM α-synuclein. Plates were covered with clear polystyrene lids and incubated at 37° C. in a GENios microplate reader obtained from Tecan Group Limited, Mannedorf, Zurich. For Aβ^1-40, tau441 and α-synuclein, fluorescence readings (λex=450 nm, λem=480 nm) were taken every 15 min., after first shaking at high intensity for 15 sec. and allowing to settle for 10 sec. before each reading. For Aβ^1-42, readings were taken every 5 min.
(§2) The absorbance of each compound was measured under the conditions used during testing, though on ten times the scale (2 mL), to ensure no significant quenching interfered with the assay. This step was also used to identify whether compounds were completely soluble under testing conditions.
FIG. 7 depicts inhibition of Aβ^1-42 aggregation by various synthesized bi-aromatic compounds and positive controls morin (Ono K, Yoshiike Y, Takashima A, Hasegawa K, Naiki H, Yamada M. 2003. J Neurochem 87:172-81) and RS-0406 (Walsh D M, Townsend M, Podlisny M B, Shankar G M, Fadeeva J V, Agnaf O E, Hartley D M, Selkoe D J. 2005. J Neurosci 25:2455-62) in the kinetic ThT assay. Same conditions as for Aβ^1-40, FIG. 1. Compound concentrations were 100 μM in (A), 20 μM in (B), except for RS-0406, which was tested at 100 μM, and 20 μM in (C).

Aβ1-40 [1] = target: T2, Aβ1-40 (Homo sapiens, UniProt P05067); experiment: Circular dichroism studies of Aβ1-40; format: biochemical; settings: 40 μM Aβ1-40, 200 μM compound, pH 7.4, 37° C.
T2 construct: Aβ^1-40 (AnaSpec, San Jose, Calif., lots 14212, 34862 and 34889); purchased AnaSpec, San Jose, Calif
Method: Aliquots (220 μL) of pretreated Aβ^1-40 (40 μM in 20 mM Tris-HCl, pH 7.4) were added directly to 1 mm quartz circular dichroism (CD) cells, followed by 2.2 μL compound (of varying concentration) in methanol or methanol alone (controls). Solutions were incubated at 37° C. for up to 6 days. CD scans were performed on a J-810 spectropolarimeter (obtained from Jasco Corporation, Tokyo, Japan) between 190 and 250 nm, with a resolution of 0.1 nm and bandwidth of 1 nm. Ten scans were obtained for each reading. Spectra had background CD of the buffer subtracted and were left unsmoothed. Readings were performed at 37° C.
FIG. 6 depicts circular dichroism (CD) of Aβ^1-40 alone (A) and in the presence of 0j (B) and morin (C). Conditions: 40 μM Aβ^1-40, 200 μM compound (B,C), pH 7.4, Tris-HCl (20 mM), 1% MeOH. Prior to experiment, Aβ^1-40 pretreated with 1,1,1,3,3,3-hexafluoroisopropanol (HFIP).

Aβ1-40 [2] = target: T2, Aβ1-40; experiment: Kinetic Thioflavin T (ThT) aggregation assay of Aβ1-40; format: biochemical; settings: 20 μM Aβ1-40, 4 μM ThT, pH 7.4, 37° C., kinetic ThT assay
Method: Aβ^1-40 (1.0 mg) was pre-treated in a 1.5 mL microfuge tube with 1,1,1,3,3,3-hexafluoroisopropanol (HFIP, 1 mL) and sonicated for 20 min. to disassemble any pre-formed Aβ aggregates. The HFIP was removed with a stream of argon and the Aβ dissolved in Tris base (5.8 mL, 20 mM, pH 10.5). The pH was adjusted to 7.4 with concentrated HCl and the solution filtered using a syringe filter (0.2 μm). This solution was used for circular dichroism studies or diluted with an equal volume of 8 μM Thioflavin T (ThT) in Tris-HCl (20 mM, pH 7.4, 300 mM NaCl) for the ThT aggregation assay.
as §1, §2
FIG. 1 depicts the inhibition of Aβ^1-40 aggregation, as measured by Thioflavin T (ThT) fluorescence, by directly-linked 3,3′-bis-indolyl compounds 0c-i (A), other bis-indoles (B), aza-indole-containing compounds (C), indole-phenols (D), indole-5-carboxylic acid-containing bi-aromatics (E), and naphthol-containing bi-aromatics (F). Aggregation conditions: 20 μM Aβ^1-40 incubated in covered black 96-well polystyrene microplates with 4 μM ThT, pH 7.4, Tris-HCl (20 mM), 150 mM NaCl, 1% DMSO. Compound concentrations are 200 μM (A,B, except where otherwise noted), 100 μM (E), 20 μM (F), or as indicated (C,D). Plates heated at 37° C. in Tecan Genios microplate reader. All incubations performed in triplicate. Prior to experiment, Aβ^1-40 pretreated with 1,1,1,3,3,3-hexafluoroisopropanol (HFIP). Fluorescence readings: fluorescence measured every 15 min. (λex=450 nm, λem=480 nm) after shaking for 15 sec. and pausing 10 sec. before taking measurement. Values are the mean of three replicates. Error bars, omitted for clarity in (B), represent standard deviation of the mean.

[3] = tested on: patients with mild to moderate Alzheimer's disease (AD); experiment: Phase IV double-blind randomized placebo-controlled clinical trial of L-tryptophan (Trp); format: in vivo, human
Method: A phase IV clinical trial of L-tryptophan (Trp) was carried out to evaluate the amino acid's effect on cognitive abilities in patients with mild to moderate Alzheimer's disease (AD). An earlier trial has been performed which studied Trp administration in patients suffering from AD [Bentham, P W. International Clinical Psychopharmacology, 1990, 5: 261-72]. The present trial expects the possible binding of Trp to the HHQK region of Aβ [D Giulian et al. (1998). Journal of Biological Chemistry 273:29719-26] and subsequent disruption of Aβ plaque formation, whereas the earlier trial was based on neurotransmitter replacement therapy. By administering Trp, levels of its metabolite […], better known as serotonin, were expected to increase, thereby countering deficits of the neurotransmitter experienced by those suffering from AD [Siegel, G J; Agranoff, B W; Albers, R W; Molinoff, P B, Basic Neurochemistry. Fifth ed. 1994, New York: Raven Press, 1054 pp]. Also providing motivation for the trial may have been earlier accounts that Trp was seen to benefit elderly patients with mental disorders [Shaw, D M; Tidmarsh, S F; Karajgi, B M; Sweeney, E A; Williams, S; Elameer, M; Twining, C. British Journal of Psychiatry, 1981, 139: 580-2, Lehmann, J; Persson, S; Walinder, J; Wallin, L. Acta Psychiatrica Scandinavica, 1981, 64: 123-31].
Twelve patients were enrolled in the current clinical trial. Patients were administered 1 g Trp (n=8) or placebo (n=4) twice a day for six months, and their cognitive abilities were assessed, using standardized tests, at baseline, three months and six months. All enrollment and testing was carried out at the Kingston General Hospital, Kingston, Ontario, Canada, under the supervision of the principal investigator, D. F. Weaver, M.D., Ph.D (the protocol is attached as Appendix A). The primary endpoint of the double-blind trial was to determine whether patients receiving Trp outperformed the controls, either by experiencing an improvement in cognition or a reduction in deterioration in cognitive abilities relative to the placebo group.
Eligible participants were those who met the clinical criteria of probable Alzheimer's disease as described in the Diagnostic and Statistical Manual of Mental Disorders, fourth edition (DSM-IV) [Anonymous, Diagnostic and Statistical Manual of Mental Disorders, 4th Edition (DSM-IV). 1994, Washington, D.C.: American Psychiatric Association] and in the National Institute of Neurologic and Communicative Disorders and Stroke and the Alzheimer's Disease Related Disorders Association (NINCDS-ADRDA) [McKhann, G; Drachman, D; Folstein, M; Katzman, R; Price, D; Stadlan, E M. Neurology, 1984, 34: 939-44]. Inclusion criteria also included: mild to moderate severity of dementia, as reflected by a Mini-Mental State Examination (MMSE) [Folstein, M F; Folstein, S E; McHugh, P R. J Psychiatr Res, 1975, 12: 189-98] score of 14 to 26; minimum one-year duration of symptoms; minimum age of 50 years; living at home or in an institution provided they had caregivers capable of attending each clinic visit and ensuring the administration of medication; able to perform the psychometric tests required; reasonably good nutritional status; vital signs (blood pressure and heart rate in sitting and standing positions), urinalysis, physical examination, and neurological evaluation must yield results within normal limits or determined as not clinically significant by the study physician for the patient's age and sex.
This study was a 6-month, double-blind randomized trial in which eligible participants were randomly assigned to receive either Trp (1000 mg, twice daily) or an identical-appearing placebo. Recruiters were unaware of the assignment. […]

patients with dementia = settings: one month, once daily dosing, ratings of behaviour and functional abilities; cited from earlier work
[4] = tested on: patients suffering from AD; settings: ten patients, three months; cited from earlier work
[5] = tested on: patients with advanced senile dementia; settings: daily Trp administration (24 mg/kg); cited from earlier work
[6] = Trp 1 g twice a day (n = 8), 6 months, negative change indicates improvement
[7] = Trp 1 g twice a day (n = 8), 6 months, positive change indicates improvement
[8] = Trp (n = 8) vs. placebo (n = 4), 3 months
[9] = Trp (n = 8) vs. placebo (n = 4), 6 months

T2 sequence (P05067 672-711 limits assumed): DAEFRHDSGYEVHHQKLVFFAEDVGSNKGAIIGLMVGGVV
T1 sequence (P05067 672-713 limits assumed): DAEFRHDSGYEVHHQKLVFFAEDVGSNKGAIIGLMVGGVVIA

O=C(O)c1ccc2[nH]cc(-c3c[nH]c4ccc(O)cc34)c2c1 [0j, 3-(5-Hydroxy-indol-3-yl)-indole-5-carboxylic Acid]
inhibition of Aβ1-42 aggregation, as measured by ThT fluorescence (Aβ1-42): inhibiting aggregation | random coil (RC)→β-sheet transition of Aβ1-40 by circular dichroism (Aβ1-40 [1]): inhibited to a greater extent | inhibition of Aβ1-40 aggregation, as measured by Thioflavin T (ThT) fluorescence (Aβ1-40 [2]): inhibition

N[C@@H](Cc1c[nH]c2ccccc12)C(=O)O [Trp, L-tryptophan]
ADAS-Cog, mean (SE) change from baseline after 3 months ([3]; Trp 1 g twice a day (n = 8), 3 months, negative change indicates improvement): −0.8 (0.9) | MMSE, mean (SE) change from baseline after 3 months ([3]; Trp 1 g twice a day (n = 8), 3 months, positive change indicates improvement): 0.8 (0.4) | ADAS-Cog, mean (SE) change from baseline after 6 months [3, 6]: −2.8 (1.4) | FAQ, mean (SE) change from baseline after 6 months [3, 6]: 3.2 (2.0) | NPI, mean (SE) change from baseline after 6 months [3, 6]: 3 (3) | Clock-drawing, mean (SE) change from baseline after 6 months [3, 7]: 1.1 (0.4) | DAD, mean (SE) change from baseline after 6 months [3, 7]: 1.5 (1.8) | MMSE, mean (SE) change from baseline after 6 months [3, 7]: 1.8 (0.5) | ADCS-CGIC, mean (SE) score at 6 months ([3]; Trp 1 g twice a day (n = 8), score at 6 months, not change from baseline, lower score indicates improvement): 3.6 (0.3) | adverse events reported by patients ([3]; Trp 1 g twice a day, 6 months): No adverse events | ADAS-Cog, treatment difference (Trp vs. placebo) after 3 months [3, 8]: 1.3 | MMSE, treatment difference (Trp vs. placebo) after 3 months [3, 8]: 2.0 | ADAS-Cog, treatment difference (Trp vs. placebo) after 6 months [3, 9]: −6.3 | ADCS-CGIC, treatment difference (Trp vs. placebo) at 6 months [3, 9]: 2.9 | Clock-drawing, treatment difference (Trp vs. placebo) after 6 months [3, 9]: 2.9 | DAD, treatment difference (Trp vs. placebo) after 6 months [3, 9]: 12.8 | FAQ, treatment difference (Trp vs. placebo) after 6 months [3, 9]: −2.0 | MMSE, treatment difference (Trp vs. placebo) after 6 months [3, 9]: 5.0 | NPI, treatment difference (Trp vs. placebo) after 6 months [3, 9]: −19 | patients depressed (Cornell Depression Index score of >5) after 6 months of treatment ([3]; Trp group (two patients), 6 months): 25% | sleep problems (score of >4 on the Pittsburgh Sleep Quality) ([3]; at baseline or at 6 months): No sleep problems | benefit in patients with dementia (patients with dementia): of no benefit | correlation between the increase in Trp plasma levels and the increase in cognitive test scores [4]: statistically significant correlation | patients with “unequivocal improvement in blind global assessment” [5]: six of 29
